≈ marks a conversion by molar mass, not a printed value.
Experiments:
Format in all cases: cell-based
[1] = tested on: Saccharomyces cerevisiae; test: MIC/MFC broth microdilution (CLSI); conditions: Saccharomyces cerevisiae S288c
Procedure: (§1) Antifungal susceptibility was determined by broth microdilution according to the CLSI guidelines described in M27-Ed4 ([16]). […] MFC was determined by back-plating drug-treated cultures from MIC broths onto SDA plates. The MFC was defined as the lowest concentration from which no colonies could be cultured.

[2] = tested on: Candida albicans; test: MIC/MFC broth microdilution (CLSI); conditions: Candida albicans SC5314
Procedure: as §1

[3] = tested on: Cryptococcus deuterogattii; test: checkerboard drug interaction (FICI, MICc);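 for all read-outs here: simplified diagonal checkerboard screen pairing antifungal drugs with FPPS inhibitors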; conditions: C. deuterogattii; for INH FD (MIC-MICc fold decrease): fold decrease of inhibitor MIC
Procedure: (§2) Drug interactions between antifungals and FPPS inhibitors were investigated using a simplified checkerboard diagonal screening method ([45]). […] FICIs were determined according to the Loewe additivity model ([17]).

[4] = tested on: Cryptococcus neoformans; test: checkerboard drug interaction (FICI, MICc);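 for all read-outs here: antifungal plus FPPS inhibitor pairs tested against Cryptococcus neoformans by simplified diagonal checkerboard screening, FICI computed under the Loewe additivity model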; conditions: C. neoformans; for INH FD (MIC-MICc fold decrease): fold decrease of inhibitor MIC
Procedure: as §2

[5] = tested on: Saccharomyces cerevisiae; test: checkerboard drug interaction (FICI, MICc); set-up: INH MICc / INH MICc (ITR:INH) / INH MICc (KET:INH) / INH MICc (FLC:INH): unit not given beside the values;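 note: simplified diagonal checkerboard screen pairing antifungals with FPPS inhibitors, FICI calculated under the Loewe additivity model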
[6] = tested on: Candida glabrata; test: checkerboard drug interaction (FICI, MICc);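 for all read-outs here: simplified diagonal checkerboard screen pairing antifungals with FPPS inhibitors, FICI calculated under the Loewe additivity model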; conditions: C. glabrata; for INH FD (MIC-MICc fold decrease): fold decrease of inhibitor MIC
Procedure: as §2

[7] = tested on: Candida albicans; test: checkerboard drug interaction (FICI, MICc);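 note: antifungal plus FPPS inhibitor combinations on Candida albicans tested by a simplified diagonal checkerboard screen, with FICI calculated under the Loewe additivity model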; conditions: C. albicans
Procedure: as §2

[8] = FLC:INH combination, MIC of the inhibitor in combination with FLC
[9] = FLC:INH combination, fold decrease of FLC MIC
[10] = ITR:INH combination, MIC of the inhibitor in combination with ITR
[11] = ITR:INH combination, fold decrease of ITR MIC
[12] = KET:INH combination, MIC of the inhibitor in combination with KET
[13] = KET:INH combination, fold decrease of KET MIC

CCCCCCCCCCCN1CCC[C@H]1C(=O)N[C@@H](CC(=O)OC)C(=O)OC [dmPLA11]
MFC [1]: 8 µg/mL (≈ 19.4 µM)
MIC [1]: 8 µg/mL (≈ 19.4 µM)
MFC [2]: 32 µg/mL (≈ 77.6 µM)
MIC [2]: 32 µg/mL (≈ 77.6 µM)
FICI ([3]; FLC:INH combination): 1.5
INH MICc [3, 8]: 32
FLC FD (MIC-MICc fold decrease) [3, 9]: 2
INH FD (MIC-MICc fold decrease) ([3]; FLC:INH combination): 1
FICI ([3]; ITR:INH combination): 2
INH MICc [3, 10]: 32
ITR FD (MIC-MICc fold decrease) [3, 11]: 1
INH FD (MIC-MICc fold decrease) ([3]; ITR:INH combination): 1
FICI ([3]; KET:INH combination): 1.13
INH MICc [3, 12]: 32
KET FD (MIC-MICc fold decrease) [3, 13]: 8
INH FD (MIC-MICc fold decrease) ([3]; KET:INH combination): 1
FICI ([4]; FLC:INH combination): 1.5
INH MICc [4, 8]: 32
FLC FD (MIC-MICc fold decrease) [4, 9]: 1
INH FD (MIC-MICc fold decrease) ([4]; FLC:INH combination): 2
FICI ([4]; ITR:INH combination): 1.5
INH MICc [4, 10]: 32
ITR FD (MIC-MICc fold decrease) [4, 11]: 1
INH FD (MIC-MICc fold decrease) ([4]; ITR:INH combination): 2
FICI ([4]; KET:INH combination): 1.5
INH MICc [4, 12]: 32
KET FD (MIC-MICc fold decrease) [4, 13]: 1
INH FD (MIC-MICc fold decrease) ([4]; KET:INH combination): 2
FICI (FLC:INH) ([5]; Fractional Inhibitory Concentration Index, fluconazole + inhibitor): 1
FICI (ITR:INH) ([5]; Fractional Inhibitory Concentration Index, itraconazole + inhibitor): 2.25
FICI (KET:INH) ([5]; Fractional Inhibitory Concentration Index, ketoconazole + inhibitor): 1
INH MICc (FLC:INH) ([5]; MIC of the inhibitor in combination with fluconazole): 4
INH MICc (ITR:INH) ([5]; MIC of the inhibitor in combination with itraconazole): 2
INH MICc (KET:INH) ([5]; MIC of the inhibitor in combination with ketoconazole): 4
FLC FD (FLC:INH) ([5]; MIC-MICc fold decrease of fluconazole, negative = increase): 2
ITR FD (ITR:INH) ([5]; MIC-MICc fold decrease of itraconazole, negative = increase): -2
KET FD (KET:INH) ([5]; MIC-MICc fold decrease of ketoconazole, negative = increase): 2
INH FD (FLC:INH) ([5]; MIC-MICc fold decrease of the inhibitor, with fluconazole): 2
INH FD (ITR:INH) ([5]; MIC-MICc fold decrease of the inhibitor, with itraconazole): 4
INH FD (KET:INH) ([5]; MIC-MICc fold decrease of the inhibitor, with ketoconazole): 2
FICI ([6]; FLC:INH combination): 3
INH MICc [6, 8]: 16
FLC FD (MIC-MICc fold decrease) [6, 9]: 1
INH FD (MIC-MICc fold decrease) ([6]; FLC:INH combination): 1
FICI ([6]; ITR:INH combination): 1
INH MICc [6, 10]: 4
ITR FD (MIC-MICc fold decrease) [6, 11]: 2
INH FD (MIC-MICc fold decrease) ([6]; ITR:INH combination): 4
FICI ([6]; KET:INH combination): 1
INH MICc [6, 12]: 4
KET FD (MIC-MICc fold decrease) [6, 13]: 2
INH FD (MIC-MICc fold decrease) ([6]; KET:INH combination): 4
FICI ([7]; FLC:INH combination): 1.25
INH MICc [7, 8]: 8
FLC FD (MIC-MICc fold decrease) [7, 9]: 1
INH FD (MIC-MICc fold decrease) ([7]; FLC:INH combination, fold decrease of inhibitor MIC): 4
FICI ([7]; ITR:INH combination): 1.25
INH MICc [7, 10]: 8
ITR FD (MIC-MICc fold decrease) [7, 11]: 1

— PMC12892976, “Alkylation-based optimization of antifungal FPPS inhibitors yields a potent, broad-spectrum lipophilic zoledronate derivative” (mBio, 2025)
